# From US20060024414A1, “Methods for preserving food products” (Kraft Foods Holdings, Inc., priority 2004, published 2006)
# Key:
# Format in all cases: cell-based
# [1] = tested on: Listeria monocytogenes Scott A; experiment: Inoculated bagged Vienna sausage challenge, warm enrichment/plating for survivors; details: nisin 0 IU/g, about 5 min; for Percentage of Bags Testing Positive For Listeria in Batch of 5 (±S.D.): TBHQ 100 ppm, sausage about 10^6 CFU/g; for Percentage of Bags Testing Positive For Listeria in Batch of 3 (±S.D.): TBHQ 300 ppm, sausage about 10^6 per g
# Experimental: (§1) In another embodiment, a food substrate processed according to methods of this invention has nondetectable levels of Listeria (even if contamination has occurred). […] The mixture is incubated at 37° C. for 48 hours, followed by the enrichment (mixture) being streaked on Oxford agar or […] agar, and observing the streaked plate for the presence/absence of Listeria. […] Tailing effects also may be reduced or eliminated by methods of the present invention. The presence or absence of other microorganisms may be detected using similar techniques modified for the specific microorganism under consideration. The edible hydroquinone was tert-butylhydroquinone (TBHQ) at a level of either 0 or 100 ppm. The tert-butylhydroquinone was a food grade material obtained from Sigma Chemical Co. (St. Louis, Mo.). The lantibiotic was nisin at a level of either 0 or 100 IU/g. The nisin used was either pure nisin or a commercial nisin ([…]®), both from Aplin & Barrett, Ltd. (Trowbridge, England). […] Nisin samples were prepared by dissolving nisin powder in distilled water, adjusting the pH to 2 with HCl, and sterilizing at 121° C. for 10 minutes. Samples were prepared and used on the same day for each experiment. Three strains of Listeria monocytogenes were used in these challenge studies. Listeria monocytogenes Scott A, OSY-8578, and OSY-328, were obtained from the Food Safety Laboratory of the Department of Food Science and Technology at The Ohio State University (Columbus, Ohio). All experiments were carried out with cultures in stationary phase (grown in tryptose broth (TB; Difco Laboratories, Detroit, Mich.) for 18 hours at 37° C.). […] The hydrostatic pressure used was 600 MPa. For comparison purposes, samples were also treated with no hydrostatic pressure (i.e., under atmospheric pressure). A hydrostatic food processor (Quintus QFP-6, ABB Autoclave Systems, Inc., Columbus, Ohio) was used with a pressure transmitting fluid containing a water/propylene glycol (1:1 vol/vol; Houghto-Safe 620-TY, Houghton International, Inc., Valley Forge, Pa.). Samples were held in a refrigerator before processing and placed on ice following treatment. The temperature during each run was monitored using a thermocouple and a datalogger (Campbell Scientific, Inc., Logan, Utah). […] Canned Vienna sausage (Armour®, The Dial Corporation, Scottsdale, Ariz.) was purchased from local grocery stores. […] One milliliter of each additive, alone or in combinations, was added, and the bags were sealed using vacuum […], Kansas City, Mo.). […] Non-pressurized samples were treated in a similar manner except that no pressure was applied. After high pressure processing, bags were opened aseptically. […] The presence or absence of L. monocytogenes survivors in the samples was determined by streaking the incubated mixture onto Oxford agar and/or […] agar. Each test run consisted of 5 tested bags at a given set of variables; the experiment was repeated 4 times. Treatment conditions required for essentially total elimination of L. monocytogenes were determined using essentially the same materials and procedures as used in Example 1 except that the nisin level was 0, 100, or 200 IU/g; the hydroquinone level was 0, 100, 200, or 300 ppm; and each experiment was repeated 3 times.
# [2] = tested on: Listeria monocytogenes OSY-328; experiment: as above; details: nisin 0 IU/g, about 5 min; for Percentage of Bags Testing Positive For Listeria in Batch of 5 (±S.D.): TBHQ 100 ppm, sausage about 10^6 CFU/g; for Percentage of Bags Testing Positive For Listeria in Batch of 3 (±S.D.): TBHQ 300 ppm, sausage about 10^6 per g
# Experimental: as §1
# [3] = tested on: Listeria monocytogenes Scott A; experiment: Pressure inactivation in phosphate buffer, plate count; details: TBHQ about 100 ppm
# Experimental: (§2) Three strains of Listeria monocytogenes identified in Example 1 were grown in tryptose broth for 18 hours at 37° C. Cultures were centrifuged at 10,000 rpm for 15 minutes at 4° C. Cell pellets were resuspended in phosphate buffer (pH 7.0) and the cell population of each strain was adjusted to 10^9 CFU/ml. Tert-butylhydroquinone was added at about 100 ppm (10% vol/vol TBHQ/culture). Preparation of sample bags and the high pressure treatment procedures were same as indicated in Example 1. Pressures tested were 300, 500, and 700 MPa. Control and high pressure-treated treated samples were serially diluted in 0.1% peptone water and spread-plated on tryptose agar. The plates were incubated at 37° C. for 48-72 hours and the colonies were counted.
# (§3) The detection level for enumeration was 10 CFU/ml. The initial population of OSY-328 averaged about 8.9 logs; therefore, more than 7.9 log reduction indicates below the detection level.
# [4] = tested on: Listeria monocytogenes OSY-328; experiment: as above; details: TBHQ about 100 ppm
# Experimental: as §2, §3
# [5] = tested on: Listeria monocytogenes OSY-8578; experiment: as above; details: TBHQ about 100 ppm
# Experimental: as §2, §3
# [6] = 300 MPa, 0 min (come-up, immediate depressurization)
# [7] = 500 MPa, 0 min (come-up, immediate depressurization)
# [8] = 700 MPa, 0 min (come-up, immediate depressurization)
structure (smiles),measurement,setting,value
"CC(C)(C)c1cc(O)ccc1O [TBHQ, tert-butylhydroquinone]",Percentage of Bags Testing Positive For Listeria in Batch of 5 (±S.D.),[1]; Run 3: 0 MPa,100%
same,Percentage of Bags Testing Positive For Listeria in Batch of 5 (±S.D.),[1]; Run 7: 600 MPa,15 (±30) %
same,Percentage of Bags Testing Positive For Listeria in Batch of 3 (±S.D.),[1]; Run 10: 0 MPa,100%
same,Percentage of Bags Testing Positive For Listeria in Batch of 3 (±S.D.),[1]; Run 15: 600 MPa,0%
same,Percentage of Bags Testing Positive For Listeria in Batch of 5 (±S.D.),[2]; Run 3: 0 MPa,100%
same,Percentage of Bags Testing Positive For Listeria in Batch of 5 (±S.D.),[2]; Run 7: 600 MPa,20 (±16) %
same,Percentage of Bags Testing Positive For Listeria in Batch of 3 (±S.D.),[2]; Run 10: 0 MPa,100%
same,Percentage of Bags Testing Positive For Listeria in Batch of 3 (±S.D.),[2]; Run 15: 600 MPa,0%
same,Average Log Reduction,[3]; [6],0 log
same,Average Log Reduction,"[3]; 300 MPa, 1 min",0 log
same,Average Log Reduction,"[3]; 300 MPa, 5 min",2.2 log
same,Average Log Reduction,"[3]; 300 MPa, 10 min",6.5 log
same,Average Log Reduction,"[3]; 300 MPa, 20 min",7.3 log
same,Average Log Reduction,"[3]; 300 MPa, 30 min",7.3 log
same,Average Log Reduction,"[3]; 300 MPa, 40 min",≧8.0 log
same,Average Log Reduction,[3]; [7],3.8 log
same,Average Log Reduction,"[3]; 500 MPa, 1 min",7.9 log
same,Average Log Reduction,"[3]; 500 MPa, 5 min",8.0 log
same,Average Log Reduction,"[3]; 500 MPa, 10 min",≧8.0 log
same,Average Log Reduction,"[3]; 500 MPa, 15 min",≧8.0 log
same,Average Log Reduction,"[3]; 500 MPa, 20 min",≧8.0 log
same,Average Log Reduction,"[3]; 500 MPa, 30 min",≧8.0 log
same,Average Log Reduction,[3]; [8],7.7 log
same,Average Log Reduction,"[3]; 700 MPa, 0.5 min",7.5 log
same,Average Log Reduction,"[3]; 700 MPa, 1 min",≧8.0 log
same,Average Log Reduction,"[3]; 700 MPa, 2 min",≧8.0 log
same,Average Log Reduction,"[3]; 700 MPa, 5 min",≧8.0 log
same,Average Log Reduction,"[3]; 700 MPa, 10 min",≧8.0 log
same,Average Log Reduction,"[3]; 700 MPa, 15 min",≧8.0 log
same,Average Log Reduction,[4]; [6],0 log
same,Average Log Reduction,"[4]; 300 MPa, 1 min",0 log
same,Average Log Reduction,"[4]; 300 MPa, 5 min",0 log
same,Average Log Reduction,"[4]; 300 MPa, 10 min",0.2 log
same,Average Log Reduction,"[4]; 300 MPa, 20 min",1.0 log
same,Average Log Reduction,"[4]; 300 MPa, 30 min",1.6 log
same,Average Log Reduction,"[4]; 300 MPa, 40 min",2.3 log
same,Average Log Reduction,"[4]; 300 MPa, 50 min",2.4 log
same,Average Log Reduction,"[4]; 300 MPa, 60 min",3.1 log
same,Average Log Reduction,[4]; [7],0.2 log
same,Average Log Reduction,"[4]; 500 MPa, 5 min",7.6 log
same,Average Log Reduction,"[4]; 500 MPa, 10 min",7.8 log
same,Average Log Reduction,"[4]; 500 MPa, 20 min",≧7.9 log
same,Average Log Reduction,"[4]; 500 MPa, 30 min",7.8 log
same,Average Log Reduction,"[4]; 500 MPa, 40 min",≧7.9 log
same,Average Log Reduction,"[4]; 500 MPa, 50 min",≧7.9 log
same,Average Log Reduction,[4]; [8],5.3 log
same,Average Log Reduction,"[4]; 700 MPa, 1 min",≧8.0 log
same,Average Log Reduction,"[4]; 700 MPa, 5 min",≧8.0 log
same,Average Log Reduction,"[4]; 700 MPa, 10 min",≧7.9 log
same,Average Log Reduction,"[4]; 700 MPa, 15 min",≧7.9 log
same,Average Log Reduction,"[4]; 700 MPa, 20 min",7.8 log
same,Average Log Reduction,"[4]; 700 MPa, 30 min",≧8.0 log
same,Average Log Reduction,[5]; [6],0 log
same,Average Log Reduction,"[5]; 300 MPa, 1 min",0.2 log
same,Average Log Reduction,"[5]; 300 MPa, 5 min",0.2 log
same,Average Log Reduction,"[5]; 300 MPa, 10 min",0.8 log
same,Average Log Reduction,"[5]; 300 MPa, 20 min",3.8 log
same,Average Log Reduction,"[5]; 300 MPa, 30 min",5.0 log
same,Average Log Reduction,"[5]; 300 MPa, 40 min",5.7 log
same,Average Log Reduction,"[5]; 300 MPa, 50 min",7.2 log
same,Average Log Reduction,[5]; [7],0.2 log
same,Average Log Reduction,"[5]; 500 MPa, 1 min",7.2 log
same,Average Log Reduction,"[5]; 500 MPa, 5 min",7.6 log
same,Average Log Reduction,"[5]; 500 MPa, 10 min",≧8.0 log
same,Average Log Reduction,"[5]; 500 MPa, 20 min",7.9 log
same,Average Log Reduction,"[5]; 500 MPa, 30 min",7.8 log
same,Average Log Reduction,"[5]; 500 MPa, 40 min",≧8.0 log
same,Average Log Reduction,[5]; [8],7.6 log
same,Average Log Reduction,"[5]; 700 MPa, 0.5 min",7.7 log
same,Average Log Reduction,"[5]; 700 MPa, 1 min",7.8 log
same,Average Log Reduction,"[5]; 700 MPa, 5 min",≧8.0 log
same,Average Log Reduction,"[5]; 700 MPa, 10 min",≧8.0 log
same,Average Log Reduction,"[5]; 700 MPa, 15 min",≧8.0 log
same,Average Log Reduction,"[5]; 700 MPa, 20 min",≧8.0 log
